PubChem BioAssay (NCI)
“And” between values parts separate entries of the source, which are not always exact repeats. Identical values can stand only once.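 Assay format: 96-well plates, 48-hour exposure. Abbreviation: GI50, concentration required for 50% inhibition of growth. TGI marks complete inhibition of growth.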

Key:
Assay in all cases: DTP human tumour cell line panel, 48 h
HCC-2998 colon = tested on: HCC-2998 colon
SR leukemia = tested on: SR leukemia
SF-539 CNS = tested on: SF-539 CNS
HS 578T breast = tested on: HS 578T breast
OVCAR-4 ovarian = tested on: OVCAR-4 ovarian
ACHN renal = tested on: ACHN renal
HL-60(TB) leukemia = tested on: HL-60(TB) leukemia
MDA-MB-231 breast = tested on: MDA-MB-231 breast

Structure (SMILES)	GI50 (HCC-2998 colon)	TGI (HCC-2998 colon)	GI50 (SR leukemia)	TGI (SR leukemia)	GI50 (SF-539 CNS)	TGI (SF-539 CNS)	GI50 (HS 578T breast)	TGI (HS 578T breast)	GI50 (OVCAR-4 ovarian)	TGI (OVCAR-4 ovarian)	GI50 (ACHN renal)	TGI (ACHN renal)	GI50 (HL-60(TB) leukemia)	TGI (HL-60(TB) leukemia)	GI50 (MDA-MB-231 breast)	TGI (MDA-MB-231 breast)
CCOC(=O)c1cc2c(n1Cc1ccccc1OC)-c1oncc1CCC2	> 100 µM	> 100 µM	0.438 µM	> 100 µM	2.48 µM	8.57 µM	3.38 µM	> 100 µM	9.35 µM	> 100 µM	16.6 µM	> 100 µM	3.04 µM	> 100 µM	9.12 µM	> 100 µM
COc1cc(/C=C/c2ccnc3ccccc23)cc(OC)c1OC	3.53 µM	> 100 µM and 38.4 µM	0.755 µM			11.5 µM and 23.3 µM	1.74 µM	20.9 µM and 7.18 µM	4.41 µM	45.5 µM and > 100 µM	4.89 µM	92 µM and > 100 µM	2.56 µM	1.58 µM and 7.97 µM	2.8 µM	9.42 µM and 46 µM
O=C(O)c1[nH]c2c([N+](=O)[O-])cc([N+](=O)[O-])cc2c1C(=O)O		> 100 µM		> 100 µM		> 100 µM		> 100 µM		> 100 µM		> 100 µM		> 100 µM		> 100 µM
C[C@@H](Oc1cc(-c2cnn(C3CCNCC3)c2)cnc1N)c1c(Cl)cc(F)cc1Cl	2.42 µM	8.65 µM	0.0497 µM	1.52 µM	1.67 µM	3.3 µM	2.41 µM	10.1 µM	2.86 µM	10.8 µM	2.61 µM	12 µM	0.917 µM	2.95 µM	1.61 µM	5.22 µM
c1ccc2c(c1)[nH]c1c3ccccc3sc21		> 100 µM		> 100 µM		> 100 µM		> 100 µM		> 100 µM		> 100 µM		> 100 µM		> 100 µM
Cc1cc(OCc2nn(CN3CCN(C)CC3)c(=S)n2/N=C/c2ccc(F)cc2)ccc1Cl	18.8 µM	33.1 µM	13.3 µM	29.7 µM	19.3 µM	40.1 µM	33.1 µM	88.7 µM	6.86 µM	22 µM	20.1 µM	34.3 µM	17.4 µM	40 µM	18.5 µM	36 µM
CC(=N/NC(N)=S)/C(C)=N/NC(N)=S		> 100 µM		> 100 µM		> 100 µM		> 100 µM				> 100 µM		> 100 µM		> 100 µM
O=c1[nH]c2ccccc2n1C1CCN(CCOc2ccccc2)CC1	26.9 µM	> 100 µM	44 µM	> 100 µM	44.9 µM	> 100 µM	20.8 µM	77.6 µM	5.86 µM	> 100 µM	40.4 µM	> 100 µM	12.9 µM	> 100 µM	27 µM	> 100 µM
Nc1cc(N)c2nc(-c3ccccc3)c(NCc3ccc(Cl)c(Cl)c3)nc2c1			1.63 µM	5.97 µM	4.6 µM	18.8 µM	5.9 µM	46.7 µM	11.7 µM	> 100 µM			1.82 µM	7.94 µM	1.58 µM	4.45 µM
C1=C\CCCCN2CC[C@H]3[C@H](CCCC/C=C\CCCN4C[C@@H](CCCCC/1)C[C@@H]3C4)C2	2.58 µM	7.6 µM	1.85 µM	4.93 µM	3.24 µM	11.5 µM	5.22 µM	15.4 µM	8.84 µM	27.5 µM	2.8 µM	10.5 µM	2.77 µM	10.8 µM	6.03 µM	19.1 µM
CC(=N\O)/C(C)=N/O.CC(=N\O)/C(C)=N/O.[Fe].[NH2-].c1c[nH]cn1			> 100 µM	> 100 µM	> 100 µM	> 100 µM	> 100 µM	> 100 µM	> 100 µM	> 100 µM	> 100 µM	> 100 µM	> 100 µM	> 100 µM	> 100 µM	> 100 µM
O=C(O)c1cc(Cl)cc(Cc2cc(Cl)cc(C(=O)O)c2O)c1O				> 100 µM		> 100 µM		> 100 µM		> 100 µM		> 100 µM				> 100 µM
NC(Cc1c[nH]c2cccc(F)c12)C(=O)O (configuration not stated)	73.2 µM and 694 µM	2400 µM		> 4500 µM	381 µM	3040 µM	62.9 µM and 501 µM	> 4500 µM		> 4500 µM	679 µM	> 4500 µM		> 4500 µM	545 µM	2300 µM
CCCCC[C@H]1C/C=C2/C(=O)C(Cl)=C[C@@H]2C/C=C\CCCC(=O)O1	0.475 µM	0.855 µM	0.122 µM	2.68 µM	0.607 µM	1.61 µM	1.1 µM	25 µM	0.735 µM	3.83 µM	0.361 µM	0.704 µM	0.565 µM	2.72 µM	0.642 µM	2.24 µM
C=C1C(=O)O[C@H]2[C@H]1CC/C(COC(=O)/C=C\C(=O)NCc1ccc(Cn3c(=O)sn(-c4ccc(Cl)cc4)c3=O)cc1)=C\CC[C@@]1(C)O[C@@H]21	0.896 µM	1.7 µM	0.24 µM	12.3 µM	0.748 µM	1.43 µM	0.954 µM	2.64 µM	0.685 µM	1.37 µM	0.404 µM	1.03 µM	0.696 µM	2.52 µM	0.758 µM	1.76 µM
CC[Si](CC)(CC)OC1[C@@H](O[Si](CC)(CC)CC)[C@@H](CNC(=O)NC)O[C@H]1n1cnc2c(NC(=O)Nc3ccccc3)ncnc21 (some centres not stated)	3.22 µM	16.2 µM	2.36 µM	5.2 µM	7.02 µM	> 100 µM	2.66 µM	39.5 µM	3.41 µM	> 100 µM	3.44 µM	> 100 µM	2.49 µM	6.32 µM	4.18 µM	56.1 µM
Oc1cc(O)c2c(c1)OC(c1ccc(O)c(O)c1)C(O)C2c1c(O)cc(O)c2c1OC(c1ccc(O)c(O)c1)C(O)C2 (configuration not stated)						> 100 µM		> 100 µM		> 100 µM		> 100 µM				> 100 µM

Structure (SMILES)	GI50 (HCC-2998 colon)	TGI (HCC-2998 colon)	GI50 (SR leukemia)	TGI (SR leukemia)	GI50 (SF-539 CNS)	TGI (SF-539 CNS)	GI50 (HS 578T breast)	TGI (HS 578T breast)	GI50 (OVCAR-4 ovarian)	TGI (OVCAR-4 ovarian)	GI50 (ACHN renal)	TGI (ACHN renal)	GI50 (HL-60(TB) leukemia)	TGI (HL-60(TB) leukemia)	GI50 (MDA-MB-231 breast)	TGI (MDA-MB-231 breast)
Cc1ccc(C2C3Cc4ccccc4C3=NN2c2ccc(S(=O)(=O)NC(=O)Nc3ccccc3)cc2)cc1 (configuration not stated)			2.51 µM	16.1 µM	14.3 µM	30.6 µM	17.4 µM	49.9 µM	17.9 µM	50 µM	14.1 µM	27.5 µM	19.6 µM	42.1 µM	10.8 µM	22.7 µM
COc1ccc(C(Nc2ccccn2)c2cc(C(C)(C)C)cc(C(C)(C)C)c2O)cc1 (configuration not stated)		38.7 µM		> 100 µM		> 100 µM		> 100 µM		> 100 µM		> 100 µM				> 100 µM
Cc1ccc(/C(=C/C=C(C#N)C#N)Sc2nc3ccccc3s2)cc1			> 100 µM	> 100 µM	4.77 µM	20.8 µM	9.86 µM	56.1 µM	6.68 µM	87.6 µM			7.02 µM	> 100 µM	2.18 µM	5.56 µM
Cc1cn(C2CC(O)C(COC(N)=O)O2)c(=O)[nH]c1=O (configuration not stated)				> 100 µM		> 100 µM		> 100 µM		> 100 µM		> 100 µM		> 100 µM		> 100 µM
C=C1C(=O)O[C@H]2[C@H]1CC/C(COC(=O)N[C@H](Cc1c[nH]c3ccccc13)C(=O)OC)=C\CC[C@@]1(C)O[C@@H]21	2.25 µM	4.6 µM	2.58 µM	10.5 µM	2.01 µM	5.37 µM	12.6 µM	44.2 µM	6.44 µM	20.4 µM	1.78 µM	4.22 µM			2 µM	5.59 µM
Cn1cc(-c2nc(-c3cn(C)c4ncccc34)cs2)c2ccccc21	2.05 µM	> 100 µM	0.703 µM	> 100 µM	1.76 µM	4.99 µM	4.14 µM	> 100 µM			3.67 µM	79.4 µM	1.92 µM	> 100 µM	3.16 µM	21.8 µM
CCCCNCCCCCNc1cc(OC)cc2cccnc12	3.1 µM	16.4 µM	28.6 µM	> 100 µM	18.3 µM	34 µM	21.7 µM	47.9 µM	26.2 µM	> 100 µM	45.3 µM	> 100 µM			23.2 µM	50.8 µM
CCS(=O)(=O)N1CCN(c2ccc(Nc3ncc(C(N)=O)c(NC4CC4)n3)cc2)CC1	23.8 µM	> 100 µM	2.78 µM	23.4 µM	2.09 µM	10.7 µM	10.9 µM	57.3 µM	12.1 µM	> 100 µM	12.5 µM	82.8 µM			22.8 µM	> 100 µM
N/C(=N/S(=O)(=O)c1cc(C(=O)Nc2ccc(F)cc2)c(Cl)cc1SCc1ccccc1)Nc1ccccc1O	2.86 µM	7.34 µM			1.94 µM	4.23 µM	1.72 µM	3.8 µM	2.22 µM	5.14 µM	18.9 µM	> 100 µM			1.54 µM	3.1 µM
CC(=O)c1ccc(Oc2c3ccccc3nc3occc23)cc1	6.35 µM	34 µM	0.842 µM	> 100 µM	2.53 µM	8.41 µM	12.4 µM	75.5 µM	46.9 µM	> 100 µM	3.57 µM	> 100 µM	8.43 µM	> 100 µM		
C=C1C(O)C2CC(C)(C)C(=O)C2=C(CC(C)C)C12CC2 (configuration not stated)	> 100 µM	> 100 µM	62.4 µM	> 100 µM	> 100 µM	> 100 µM	> 100 µM	> 100 µM	> 100 µM	> 100 µM	> 100 µM	> 100 µM			> 100 µM	> 100 µM
CCOP(=O)(OCC)C(NC(c1ccccc1)c1ccccc1)c1ccc(C(C)C)cc1 (configuration not stated)	5.49 µM	18.2 µM			13.1 µM	30 µM			2.57 µM	64.8 µM	2.64 µM	7.27 µM			6.12 µM	20.8 µM
CCN(CC)CCCC(C)Nc1ccnc(/C=C/c2ccc(Cl)cc2)c1 (configuration not stated)		4.03 µM		> 27.2 µM		3.8 µM		5.81 µM				8.68 µM		> 100 µM		3.19 µM
COc1cc(NCCC2CCCCN2)c2ncccc2c1OC (configuration not stated)	16.9 µM	31.8 µM			14.1 µM	28.5 µM	4.34 µM	31.1 µM	1.5 µM	2.86 µM	21.2 µM	89.9 µM			3.02 µM	12.5 µM
CC1(C)CC[C@]2(CO)CC[C@]3(C)C(=CC[C@@H]4[C@@]5(C)CCNCC(C)(C)[C@@H]5CC[C@]43C)[C@@H]2C1	1.89 µM	4.07 µM			10.6 µM	23.1 µM	4.88 µM	22.1 µM	7.66 µM	24 µM	4.91 µM	16.6 µM	2.45 µM	7.34 µM	3.49 µM	11.6 µM
CC(=O)O[C@H]1CC[C@]2(C)C3C(=O)C[C@]4(C)[C@@H](C(C)CCC(=O)O)CC[C@@]4(C)[C@@H]3CC[C@H]2C1(C)C (some centres not stated)			16.6 µM	> 50 µM	12.8 µM	35.2 µM	11.9 µM	39.5 µM	40.4 µM	> 50 µM	10.7 µM	35.4 µM	8.65 µM	> 50 µM	> 50 µM	> 50 µM
CCOC(=O)c1cc(C(=O)c2cc(OC)c(OC)c(OC)c2)n2ccc(-c3cc[n+](CC(=O)c4cc(OC)c(OC)c(OC)c4)cc3)cc12	3.32 µM	15.1 µM			1.61 µM	3.3 µM	1.74 µM	4.29 µM	1.74 µM	3.67 µM	3.33 µM	13.6 µM	2.58 µM	5.75 µM	1.66 µM	3.29 µM
